From ChEMBL document CHEMBL1144237, “Novel HCV NS5B polymerase inhibitors derived from 4-(1',1'-dioxo-1',4'-dihydro-1'lambda(6)-benzo[1',2',4']thiadiazin-3'-yl)-5-hydroxy-2H-pyridazin-3-ones. Part 5: Exploration of pyridazinones containing 6-amino-substituents” (Bioorg Med Chem Lett, 2008)

Assay: Apparent permeability across human Caco-2 cell membrane
Assay type: ADME, cell-based

Structure (SMILES) | Papp
CC(C)(C)CCn1nc(N2CCCC2)c(O)c(C2=NS(=O)(=O)c3cc(NS(C)(=O)=O)ccc3N2)c1=O | 0.37 ×10⁻⁶ cm/s
CS(=O)(=O)Nc1ccc2c(c1)S(=O)(=O)N=C(c1c(O)c(N3CCCC3)nn(CCC3CC3)c1=O)N2 | 0.22 ×10⁻⁶ cm/s
CCN(CC)c1nn(CCC(C)C)c(=O)c(C2=NS(=O)(=O)c3cc(NS(C)(=O)=O)ccc3N2)c1O | 0.3 ×10⁻⁶ cm/s
CC(C)CCn1nc(N(C)C(C)C)c(O)c(C2=NS(=O)(=O)c3cc(NS(C)(=O)=O)ccc3N2)c1=O | 0.77 ×10⁻⁶ cm/s
CC(C)CCn1nc(N2CCOCC2)c(O)c(C2=NS(=O)(=O)c3cc(NS(C)(=O)=O)ccc3N2)c1=O | 0.021 ×10⁻⁶ cm/s

Further lines, results first:

Papp | Structure (SMILES)
0.32 ×10⁻⁶ cm/s | CC(C)CCn1nc(N2CCCC2)c(O)c(C2=Nc3ccc(NS(C)(=O)=O)cc3S(=O)(=O)N2)c1=O
0.02 ×10⁻⁶ cm/s | CC(C)CCn1nc(-c2cccs2)c(O)c(C2=Nc3ccc(NS(C)(=O)=O)cc3S(=O)(=O)N2)c1=O
0.12 ×10⁻⁶ cm/s | CCCN(C)c1nn(CCC(C)C)c(=O)c(C2=NS(=O)(=O)c3cc(NS(C)(=O)=O)ccc3N2)c1O
